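Method: 48-hour compound exposure of cells in 96-well plates, five concentrations, linear interpolation of endpoints. TGI denotes the concentration required for complete inhibition of growth.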
How the values were obtained:
Assay in all cases: inhibition of tumour cell growth, NCI panel, 48 h
A498 renal = tested on: A498 renal
COLO 205 colon = tested on: COLO 205 colon
EKVX NSCLC = tested on: EKVX NSCLC
HCC-2998 colon = tested on: HCC-2998 colon
HL-60(TB) leukemia = tested on: HL-60(TB) leukemia
KM12 colon = tested on: KM12 colon
M14 melanoma = tested on: M14 melanoma
NCI-H226 lung = tested on: NCI-H226 lung
OVCAR-3 ovarian = tested on: OVCAR-3 ovarian
RXF 393 renal = tested on: RXF 393 renal
SF-539 CNS = tested on: SF-539 CNS
SN12C renal = tested on: SN12C renal
U251 CNS = tested on: U251 CNS
UO-31 renal = tested on: UO-31 renal

Structure (SMILES) | TGI (A498 renal) [µM] | TGI (COLO 205 colon) [µM] | TGI (EKVX NSCLC) [µM] | TGI (HCC-2998 colon) [µM] | TGI (HL-60(TB) leukemia) [µM] | TGI (KM12 colon) [µM] | TGI (M14 melanoma) [µM] | TGI (NCI-H226 lung) [µM] | TGI (OVCAR-3 ovarian) [µM] | TGI (RXF 393 renal) [µM] | TGI (SF-539 CNS) [µM] | TGI (SN12C renal) [µM] | TGI (U251 CNS) [µM] | TGI (UO-31 renal) [µM]
C#C[C@@]1(O)CCCC2=CC3(CC[C@]21C)SCCS3 | > 100 | > 100 | > 100 | > 100 | > 100 | > 100 | > 100 | > 100 | > 100 | > 100 | > 100 | > 100 | > 100 | > 100
CCN(CC)CCn1c(=O)c2c(C)c3oc4ccccc4oc3c(C)c2c1=O | > 100 | > 100 | > 100 | > 100 | > 100 | > 100 | > 100 | > 100 |  | > 100 | > 100 | > 100 | > 100 | 
CN(C)CCNC(=O)c1cccc2nc3c(C(=O)NCCN(C)C)cccc3nc12 | 4.61 | 1.87 | 3.76 | 4.12 | 3.96 | 8.82 | 3.13 | 5.66 | 8.67 | 4.06 | 6.64 | 5.58 | 11.2 | 34.1
O=C(C/C(=N/O)C(F)(F)F)c1cccs1 | > 100 | > 100 | > 100 | > 100 | > 100 | > 100 | > 100 | > 100 | > 100 | > 100 | > 100 | > 100 | > 100 | > 100
CCCCCCCCCCCCCCCCCCNC(=S)/N=C/c1c(O)c2ccccc2[nH]c1=O | 36.9 | 32.9 | 29.6 | 31.1 | 17.9 | 30.9 | 35.5 | 63.3 | 37.8 | 53.5 | 43.1 | 41 | 40.5 | 32.6
Cc1cc2c(cc1C)C(=O)C1(C2)Cc2cc3c(cc2C1=O)CCC3 (centres undefined) | > 100 | > 100 | > 100 | > 100 | > 100 | > 100 | > 100 | > 100 | > 100 | > 100 | 91.9 | > 100 | > 100 | > 100
CCCCCCCCP(=O)(O)OP(=O)(O)OCC1OC(n2ccc(N)nc2=O)C(O)C1O (centres undefined) | > 100 | > 100 | > 100 | > 100 | > 100 | > 100 | > 100 | > 100 | > 100 | > 100 | > 100 | > 100 | > 100 | > 100
CC1(C)OC(=O)C(C#N)=C1C[n+]1ccccc1 | > 10 | > 10 | > 10 | > 10 | > 10 | > 10 | > 10 | > 10 | > 10 | > 10 | > 10 | > 10 | > 10 | > 10
Cc1cc(S(=O)(=O)Nc2nncn2-c2ccc(Cl)cc2)c(S)cc1Cl | > 10 | > 10 | > 10 | > 10 | > 10 | > 10 | > 10 | > 10 | > 10 | > 10 | > 10 | > 10 | > 10 | 
O[C@@H]1CCC[C@@H]2NC[C@@H](c3ccc4c(c3)OCO4)[C@H]12 | > 100 | > 100 | > 100 | > 100 | > 100 | > 100 | > 100 | > 100 | > 100 | > 100 | > 100 |  | > 100 | > 100
COc1c(Br)cc2ccccc2c1-c1c(OC)c(Br)cc2ccccc12 | > 100 | > 100 | > 100 | > 100 | > 100 | > 100 | > 100 | > 100 | > 100 | > 100 | > 100 |  | > 100 | > 100
COC(=O)C(=O)C(C(=O)C(=O)Nc1ccccc1OC)c1nc2ccc([N+](=O)[O-])cc2[nH]c1=O (centres undefined) | > 100 |  | > 100 | > 100 | > 100 | > 100 | > 100 | > 100 | > 100 | > 100 | > 100 | > 100 | > 100 | > 100
COc1ccc(NC(C(N)=O)c2cc3cc(Br)ccc3nc2Cl)cc1 (centres undefined) | > 100 | > 100 | > 100 | > 100 | > 100 | > 100 | > 100 | > 100 | > 100 | > 100 | > 100 | > 100 |  | > 100
Cc1[nH]c2ccccc2c1/C=N/NC(=O)c1cccc(I)c1 | 34.6 | 27 | 41.9 | 36.1 | 57.5 | 37.1 | 30 |  | 41.2 | 36.3 | 38.2 | > 100 | 57 | 61.6
O=C(N/N=C\c1cccc2ccccc12)Nc1cccc2ccccc12 | 51.3 | > 100 | > 100 | > 100 | 60.8 | > 100 | > 100 | > 100 |  | 43.4 | 42.1 | > 100 | 34.9 | > 100
CC1SC2(CCCCC2)N(NC(=O)CSc2nc3ccc(Cl)cc3c(=O)n2-c2ccccc2)C1=O (centres undefined) | 81.2 | 29.2 | > 100 | 41.8 | 51 | > 100 | 42.2 |  | 32.8 | 38.5 | 33 | 32.5 | 31.6 | 40.4

— PubChem BioAssay (NCI)
